Several values for one entry are separate records, joined by “and”; a condition that tells them apart may be missing. Equal values may be shown once. Read-outs that look alike come from different tables or passages of the source.
Assays:
[1] = biological target: T1, USP30 (Homo sapiens, UniProt Q70CQ3); assay: biochemical; settings: USP30 10 nM, Ub-rhodamine110
T1 construct: purchased LifeSensors, Inc. (Malvern, PA)

[2] = Metabolic stability in rat liver microsomes; settings: Sprague-Dawley
[3] = biological target: T2, USP15 (Homo sapiens, UniProt Q9Y4E8); assay: DUB selectivity assay, USP15 (Ub-rhodamine110); assay type: biochemical; settings: USP15 1 nM, Ub-rhodamine110; read-out: IC50
T2 construct: purchased LifeSensors, Inc. (Malvern, PA)
T2 sequence (Q9Y4E8 1-981): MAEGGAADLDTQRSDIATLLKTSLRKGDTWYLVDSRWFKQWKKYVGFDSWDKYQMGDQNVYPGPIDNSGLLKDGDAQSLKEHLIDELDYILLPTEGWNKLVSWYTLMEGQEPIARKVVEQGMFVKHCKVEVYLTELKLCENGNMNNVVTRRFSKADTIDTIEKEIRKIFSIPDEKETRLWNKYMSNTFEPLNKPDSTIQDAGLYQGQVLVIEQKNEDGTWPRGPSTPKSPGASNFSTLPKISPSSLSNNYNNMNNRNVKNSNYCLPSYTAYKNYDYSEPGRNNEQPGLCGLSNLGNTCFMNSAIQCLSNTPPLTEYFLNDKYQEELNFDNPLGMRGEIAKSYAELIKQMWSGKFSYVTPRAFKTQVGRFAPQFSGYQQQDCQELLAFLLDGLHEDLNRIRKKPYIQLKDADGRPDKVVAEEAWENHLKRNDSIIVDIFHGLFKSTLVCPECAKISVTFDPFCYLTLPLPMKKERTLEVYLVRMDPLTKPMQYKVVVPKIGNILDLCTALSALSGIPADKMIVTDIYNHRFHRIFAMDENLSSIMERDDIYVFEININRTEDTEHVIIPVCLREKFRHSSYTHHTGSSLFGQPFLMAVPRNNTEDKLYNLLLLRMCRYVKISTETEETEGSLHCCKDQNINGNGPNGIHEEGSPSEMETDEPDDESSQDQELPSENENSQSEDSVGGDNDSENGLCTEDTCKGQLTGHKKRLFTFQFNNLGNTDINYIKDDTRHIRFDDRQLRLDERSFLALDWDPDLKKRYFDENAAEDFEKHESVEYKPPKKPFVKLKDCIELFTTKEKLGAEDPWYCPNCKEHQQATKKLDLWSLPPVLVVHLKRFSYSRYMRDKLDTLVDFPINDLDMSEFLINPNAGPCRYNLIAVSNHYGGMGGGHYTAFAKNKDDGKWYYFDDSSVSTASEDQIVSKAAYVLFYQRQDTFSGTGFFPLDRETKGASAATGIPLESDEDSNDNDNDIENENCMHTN

[4] = system: Vero E6 cells; settings: African green monkey, 48 h
[5] = biological target: PLpro from SARS-CoV-2 (Severe acute respiratory syndrome coronavirus 2, UniProt P0DTD1); assay: biochemical; assay type: biochemical; set-up: mean (kobs plot, Supplementary Figure 6 II): unit: min^-1
[6] = biological target: SARS-CoV-2 PLpro (Severe acute respiratory syndrome coronavirus 2, UniProt P0DTD1); assay: biochemical; settings: PLpro 50 nM, Ub-rhodamine110
[7] = biological target: T3, UCHL1 (Homo sapiens, UniProt P09936); assay: biochemical; settings: UCHL1 10 nM, Ub-rhodamine110
T3 construct: purchased LifeSensors, Inc. (Malvern, PA)

[8] = system: SARS-CoV-2 isolate USA-WA1/2020; assay: microbe, parasite or virus in culture

T1 sequence (Q70CQ3 whole entry): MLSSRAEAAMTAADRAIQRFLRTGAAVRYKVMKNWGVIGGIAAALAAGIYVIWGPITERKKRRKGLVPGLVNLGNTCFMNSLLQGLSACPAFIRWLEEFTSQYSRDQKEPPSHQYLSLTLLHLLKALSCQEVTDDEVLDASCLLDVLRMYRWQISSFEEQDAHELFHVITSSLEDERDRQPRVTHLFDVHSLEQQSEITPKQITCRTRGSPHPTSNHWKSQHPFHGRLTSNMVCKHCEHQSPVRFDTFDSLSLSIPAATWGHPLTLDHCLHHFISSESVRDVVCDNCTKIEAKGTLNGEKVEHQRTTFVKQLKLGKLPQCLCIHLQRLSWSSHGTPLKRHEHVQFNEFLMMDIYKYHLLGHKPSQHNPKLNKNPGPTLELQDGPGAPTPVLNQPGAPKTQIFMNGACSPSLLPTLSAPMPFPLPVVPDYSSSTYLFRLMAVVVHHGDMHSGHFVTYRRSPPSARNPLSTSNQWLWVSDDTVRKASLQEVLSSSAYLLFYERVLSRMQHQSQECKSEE
T3 sequence (P09936 whole entry): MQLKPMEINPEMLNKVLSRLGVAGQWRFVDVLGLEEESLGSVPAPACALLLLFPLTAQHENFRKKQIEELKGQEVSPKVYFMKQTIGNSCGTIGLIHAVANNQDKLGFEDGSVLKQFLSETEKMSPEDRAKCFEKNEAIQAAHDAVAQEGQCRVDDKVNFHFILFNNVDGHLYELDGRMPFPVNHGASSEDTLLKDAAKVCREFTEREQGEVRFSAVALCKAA

C[C@@H](NC(=O)c1ccccc1CCC(=O)NNC(=O)CCl)c1cccc2ccccc12 [Compound 9, (R)-2-(3-(2-(2-chloroacetyl)hydrazineyl)-3-oxopropyl)-N-(1-(naphthalen-1-yl)ethyl)benzamide]
IC50 [1]: > 30 µM
half-life [2]: 13 min
microsomal CLint [2]: 515 µL/min/mg
IC50 [3]: > 30 µM
cytotoxicity, %cell viability ([4]; 2.08 µM): 100.620%
cytotoxicity, %cell viability ([4]; 8.33 µM): 103.333%
cytotoxicity, %cell viability ([4]; 16.65 µM): 94.042%
kinact/KI [5]: 110 M⁻¹ s⁻¹
remaining activity at 1 µM ([5]; 5 min, read-out: PLpro activity after preincubation, inhibitor 1 uM, preincubation 5 min): 103%
remaining activity at 4 µM ([5]; 5 min, read-out: PLpro activity after preincubation, inhibitor 4 uM, preincubation 5 min): 97.6%
remaining activity at 5 µM ([5]; 5 min, read-out: PLpro activity after preincubation, inhibitor 5 uM, preincubation 5 min): 92.9%
remaining activity at 10 µM ([5]; 5 min, read-out: PLpro activity after preincubation, inhibitor 10 uM, preincubation 5 min): 78.5%
remaining activity at 15 µM ([5]; 5 min, read-out: PLpro activity after preincubation, inhibitor 15 uM, preincubation 5 min): 66.8%
remaining activity at 25 µM ([5]; 5 min, read-out: PLpro activity after preincubation, inhibitor 25 uM, preincubation 5 min): 57.8%
remaining activity at 30 µM ([5]; 5 min, read-out: PLpro activity after preincubation, inhibitor 30 uM, preincubation 5 min): 62%
remaining activity at 36 µM ([5]; 5 min, read-out: PLpro activity after preincubation, inhibitor 36 uM, preincubation 5 min): 57.3%
remaining activity at 1 µM ([5]; 10 min, read-out: PLpro activity after preincubation, inhibitor 1 uM, preincubation 10 min): 103%
remaining activity at 2 µM ([5]; 10 min, read-out: PLpro activity after preincubation, inhibitor 2 uM, preincubation 10 min): 93.2%
remaining activity at 5 µM ([5]; 10 min, read-out: PLpro activity after preincubation, inhibitor 5 uM, preincubation 10 min): 74%
remaining activity at 10 µM ([5]; 10 min, read-out: PLpro activity after preincubation, inhibitor 10 uM, preincubation 10 min): 53.4%
remaining activity at 15 µM ([5]; 10 min, read-out: PLpro activity after preincubation, inhibitor 15 uM, preincubation 10 min): 47.4%
remaining activity at 25 µM ([5]; 10 min, read-out: PLpro activity after preincubation, inhibitor 25 uM, preincubation 10 min): 38.1%
remaining activity at 30 µM ([5]; 10 min, read-out: PLpro activity after preincubation, inhibitor 30 uM, preincubation 10 min): 42.9%
remaining activity at 36 µM ([5]; 10 min, read-out: PLpro activity after preincubation, inhibitor 36 uM, preincubation 10 min): 38.6%
remaining activity at 2 µM ([5]; 20 min, read-out: PLpro activity after preincubation, inhibitor 2 uM, preincubation 20 min): 77.2%
remaining activity at 8 µM ([5]; 20 min, read-out: PLpro activity after preincubation, inhibitor 8 uM, preincubation 20 min): 39.6%
remaining activity at 1 µM ([5]; 0.5 h, read-out: PLpro activity after preincubation, inhibitor 1 uM, preincubation 30 min): 83.9%
remaining activity at 2 µM ([5]; 0.5 h, read-out: PLpro activity after preincubation, inhibitor 2 uM, preincubation 30 min): 68.5%
remaining activity at 4 µM ([5]; 0.5 h, read-out: PLpro activity after preincubation, inhibitor 4 uM, preincubation 30 min): 44.8%
remaining activity at 5 µM ([5]; 0.5 h, read-out: PLpro activity after preincubation, inhibitor 5 uM, preincubation 30 min): 40.6%
remaining activity at 8 µM ([5]; 0.5 h, read-out: PLpro activity after preincubation, inhibitor 8 uM, preincubation 30 min): 30.9%
remaining activity at 10 µM ([5]; 0.5 h, read-out: PLpro activity after preincubation, inhibitor 10 uM, preincubation 30 min): 31.6%
remaining activity at 15 µM ([5]; 0.5 h, read-out: PLpro activity after preincubation, inhibitor 15 uM, preincubation 30 min): 12.2%
remaining activity at 25 µM ([5]; 0.5 h, read-out: PLpro activity after preincubation, inhibitor 25 uM, preincubation 30 min): 10.3%
remaining activity at 30 µM ([5]; 0.5 h, read-out: PLpro activity after preincubation, inhibitor 30 uM, preincubation 30 min): 13.7%
remaining activity at 36 µM ([5]; 0.5 h, read-out: PLpro activity after preincubation, inhibitor 36 uM, preincubation 30 min): 12.5%
remaining activity at 1 µM ([5]; 1 h, read-out: PLpro activity after preincubation, inhibitor 1 uM, preincubation 60 min): 68.1%
remaining activity at 2 µM ([5]; 1 h, read-out: PLpro activity after preincubation, inhibitor 2 uM, preincubation 60 min): 42.3%
remaining activity at 4 µM ([5]; 1 h, read-out: PLpro activity after preincubation, inhibitor 4 uM, preincubation 60 min): 21.8%
remaining activity at 5 µM ([5]; 1 h, read-out: PLpro activity after preincubation, inhibitor 5 uM, preincubation 60 min): 16.1%
remaining activity at 8 µM ([5]; 1 h, read-out: PLpro activity after preincubation, inhibitor 8 uM, preincubation 60 min): 10.3%
remaining activity at 15 µM ([5]; 1 h, read-out: PLpro activity after preincubation, inhibitor 15 uM, preincubation 60 min): 7.87%
remaining activity at 25 µM ([5]; 1 h, read-out: PLpro activity after preincubation, inhibitor 25 uM, preincubation 60 min): 12.5%
remaining activity at 2 µM ([5]; 85 min, read-out: PLpro activity after preincubation, inhibitor 2 uM, preincubation 85 min): 29.8%
remaining activity at 2 µM ([5]; 110 min, read-out: PLpro activity after preincubation, inhibitor 2 uM, preincubation 110 min): 18%
remaining activity at 1 µM ([5]; […], read-out: PLpro activity after preincubation, inhibitor 1 uM, preincubation 15 min): 93.3%
remaining activity at 1 µM ([5]; […], read-out: PLpro activity after preincubation, inhibitor 1 uM, preincubation 45 min): 79.9%
remaining activity at 1 µM ([5]; […], read-out: PLpro activity after preincubation, inhibitor 1 uM, preincubation 90 min): 54%
remaining activity at 2 µM ([5]; […], read-out: PLpro activity after preincubation, inhibitor 2 uM, preincubation 45 min): 56.1%
remaining activity at 4 µM ([5]; […], read-out: PLpro activity after preincubation, inhibitor 4 uM, preincubation 15 min): 73.3%
remaining activity at 4 µM ([5]; […], read-out: PLpro activity after preincubation, inhibitor 4 uM, preincubation 45 min): 30.6%
remaining activity at 4 µM ([5]; […], read-out: PLpro activity after preincubation, inhibitor 4 uM, preincubation 90 min): 18.5%
remaining activity at 5 µM ([5]; […], read-out: PLpro activity after preincubation, inhibitor 5 uM, preincubation 15 min): 57.4%
remaining activity at 5 µM ([5]; […], read-out: PLpro activity after preincubation, inhibitor 5 uM, preincubation 45 min): 20.3%
remaining activity at 5 µM ([5]; […], read-out: PLpro activity after preincubation, inhibitor 5 uM, preincubation 90 min): 9.23%
remaining activity at 8 µM ([5]; […], read-out: PLpro activity after preincubation, inhibitor 8 uM, preincubation 45 min): 12.3%
remaining activity at 10 µM ([5]; […], read-out: PLpro activity after preincubation, inhibitor 10 uM, preincubation 15 min): 49.7%
remaining activity at 10 µM ([5]; […], read-out: PLpro activity after preincubation, inhibitor 10 uM, preincubation 45 min): 14.1%
remaining activity at 15 µM ([5]; […], read-out: PLpro activity after preincubation, inhibitor 15 uM, preincubation 15 min): 40.2%
remaining activity at 15 µM ([5]; […], read-out: PLpro activity after preincubation, inhibitor 15 uM, preincubation 45 min): 10.8%
remaining activity at 15 µM ([5]; […], read-out: PLpro activity after preincubation, inhibitor 15 uM, preincubation 90 min): 12.6%
remaining activity at 25 µM ([5]; […], read-out: PLpro activity after preincubation, inhibitor 25 uM, preincubation 15 min): 17.8%
remaining activity at 25 µM ([5]; […], read-out: PLpro activity after preincubation, inhibitor 25 uM, preincubation 90 min): 10.7%
remaining activity at 30 µM ([5]; […], read-out: PLpro activity after preincubation, inhibitor 30 uM, preincubation 15 min): 29.9%
remaining activity at 30 µM ([5]; […], read-out: PLpro activity after preincubation, inhibitor 30 uM, preincubation 45 min): 6.98%
remaining activity at 36 µM ([5]; […], read-out: PLpro activity after preincubation, inhibitor 36 uM, preincubation 15 min): 18%
remaining activity at 36 µM ([5]; […], read-out: PLpro activity after preincubation, inhibitor 36 uM, preincubation 45 min): 6.34%
Time dep. (time-dependent inhibition) ([5]; fluorogenic peptide assay, varied preincubation time): Yes
mean (kobs plot, Supplementary Figure 6 II) ([5]; inhibitor 1 uM): 0.0070
mean (kobs plot, Supplementary Figure 6 II) ([5]; inhibitor 2 uM): 0.0147
mean (kobs plot, Supplementary Figure 6 II) ([5]; inhibitor 4 uM): 0.0210
mean (kobs plot, Supplementary Figure 6 II) ([5]; inhibitor 5 uM): 0.0344
mean (kobs plot, Supplementary Figure 6 II) ([5]; inhibitor 8 uM): 0.0503
mean (kobs plot, Supplementary Figure 6 II) ([5]; inhibitor 10 uM): 0.0558
mean (kobs plot, Supplementary Figure 6 II) ([5]; inhibitor 13 uM): 0.0770
mean (kobs plot, Supplementary Figure 6 II) ([5]; inhibitor 15 uM): 0.0658
mean (kobs plot, Supplementary Figure 6 II) ([5]; inhibitor 25 uM): 0.0896
mean (kobs plot, Supplementary Figure 6 II) ([5]; inhibitor 30 uM): 0.0802
mean (kobs plot, Supplementary Figure 6 II) ([5]; inhibitor 36 uM): 0.0968
Hill slope [6]: 0.705
IC50 [6]: 1.96 µM
IC50 [7]: > 30 µM
EC50 ([8]; Severe acute respiratory syndrome coronavirus 2, Vero C1008, 48 h, read-out: EC50 (cytopathic effect)): 34 µM
inhibition at […] ([8]; Severe acute respiratory syndrome coronavirus 2, Vero C1008, read-out: cytopathic effect, % cell viability): 17.4% and 13.2%
inhibition at 2.08 µM ([8]; Severe acute respiratory syndrome coronavirus 2, Vero C1008, read-out: cytopathic effect, % cell viability, [inhibitor] 2.08 uM, duplicate wells): 10.7%
inhibition at 8.33 µM ([8]; Severe acute respiratory syndrome coronavirus 2, Vero C1008, read-out: cytopathic effect, % cell viability, [inhibitor] 8.33 uM, duplicate wells): 26.9%
inhibition at 16.65 µM ([8]; Severe acute respiratory syndrome coronavirus 2, Vero C1008, read-out: cytopathic effect, % cell viability, [inhibitor] 16.65 uM, duplicate wells): 19.8%
